Results as given in patent publication US20260103471A1, “CYCLIC UREA THIAZOLYL COMPOUNDS FOR TREATMENT OF HSV” (Assembly Biosciences, Inc., priority 2022, published 2026).

Test system: HSV-2 G strain
Assay: HSV-2 Antiviral Assay (Vero cells, cell viability)
Format: cell-based
Conditions: Human alphaherpesvirus 2, Vero, 120 h, Vero cells, 160 TCID50 HSV-2 G strain, 5 days, cell viability
Procedure: Vero cells were cultured in Dulbecco's Modified Eagle Medium (DMVEM) supplemented with […] and 100 units/mL penicillin and streptomycin. The cells were passaged 2-3 times per week to maintain sub-confluent densities.
Vero cells were seeded into 96-well plates at a density of 1.0×10^4 cells per well and allowed to attach overnight. Following attachment, the media was replaced with 50 μL of infection medium (DMEM supplemented with 2% fetal bovine serum and 100 units/mL penicillin and streptomycin). A Tecan D300e digital dispenser was then used to add compounds to the culture using an 8-point 3-fold serial dilution format. The DMSO concentration was normalized to 0.5% for all treatments. Following compound addition, 50 μL of infection medium containing 160 TCID50 HSV-2 G strain was added to the cells and incubated at 37° C. for 5 days. After the incubation, 10 μL/well of WST-8 chromogenic reagent was added and the plates incubated at 37° C. for 3 hours. Following the incubation, cell viability was quantified by measuring the absorbance at 460 nm and 620 nm using a Tecan Infinite M1000 Pro plate reader.

Cc1nc(N2C(=O)N(c3ccc(-c4cc(F)ccc4F)cc3)CC[C@H]2C)sc1S(N)(=O)=O (single isomer, unassigned) [Compound 108] and Cc1nc(N2C(=O)N(c3ccc(-c4cc(F)ccc4F)cc3)CC[C@@H]2C)sc1S(N)(=O)=O (single isomer, unassigned) [Compound 109] cannot be ordered by EC50: < 100 nM for the first, < 100 nM for the second.

First: Cc1nc(N2CCCN(c3ccc(-c4ccccc4F)cc3)C2=O)sc1[S@](C)(=N)=O (single isomer, unassigned) [Compound 143]
Second: Cc1nc(N2CCCN(c3ccc(-c4ccccc4F)cc3)C2=O)sc1[S@@](C)(=N)=O (single isomer, unassigned) [Compound 144]
The EC50 of the first is lower: < 100 nM for the first, 100 to 1000 nM for the second. The first is the more potent here.

First: CN=[S@](C)(=O)c1sc(N2CCCN(c3ccc(-c4ccccc4F)cc3)C2=O)nc1C (single isomer, unassigned) [Compound 146]
Second: CN=[S@@](C)(=O)c1sc(N2CCCN(c3ccc(-c4ccccc4F)cc3)C2=O)nc1C (single isomer, unassigned) [Compound 147]
The EC50 of the first is higher: 100 to 1000 nM for the first, < 100 nM for the second.

First: CN=[S@@](C)(=O)c1sc(N2CCCN(c3ccc(-c4cc(F)ccc4F)cc3)C2=O)nc1C (single isomer, unassigned) [Compound 152]
Second: CN=[S@](C)(=O)c1sc(N2CCCN(c3ccc(-c4cc(F)ccc4F)cc3)C2=O)nc1C (single isomer, unassigned) [Compound 153]
The EC50 of the first is higher: 1000 to 5000 nM for the first, 100 to 1000 nM for the second. The second is the more potent here.

Cc1nc(N2C[C@H](C)CN(c3ccc(-c4cc(F)ccc4F)cc3)C2=O)sc1S(N)(=O)=O (single isomer, unassigned) [Compound 319] and Cc1nc(N2C[C@@H](C)CN(c3ccc(-c4cc(F)ccc4F)cc3)C2=O)sc1S(N)(=O)=O (single isomer, unassigned) [Compound 320] cannot be ordered by EC50: < 100 nM for the first, < 100 nM for the second.

Cc1nc(N2C[C@H](C)CN(c3ccc(-c4ccccc4)cc3)C2=O)sc1S(N)(=O)=O (single isomer, unassigned) [Compound 327] and Cc1nc(N2C[C@@H](C)CN(c3ccc(-c4ccccc4)cc3)C2=O)sc1S(N)(=O)=O (single isomer, unassigned) [Compound 328] cannot be ordered by EC50: < 100 nM for the first, < 100 nM for the second.

COc1ccc(F)cc1-c1ccc(N2C[C@@H](C)CN(c3nc(C)c(S(N)(=O)=O)s3)C2=O)cc1 (single isomer, unassigned) [Compound 330] and COc1ccc(F)cc1-c1ccc(N2C[C@H](C)CN(c3nc(C)c(S(N)(=O)=O)s3)C2=O)cc1 (single isomer, unassigned) [Compound 331] cannot be ordered by EC50: < 100 nM for the first, < 100 nM for the second.

Cc1nc(N2CC[C@@H](C)N(c3ccc(-c4cc(F)ccc4F)cc3)C2=O)sc1S(N)(=O)=O (single isomer, unassigned) [Compound 333] and Cc1nc(N2CC[C@H](C)N(c3ccc(-c4cc(F)ccc4F)cc3)C2=O)sc1S(N)(=O)=O (single isomer, unassigned) [Compound 334] cannot be ordered by EC50: < 100 nM for the first, < 100 nM for the second.

Cc1nc(N2C[C@@H](C(C)(C)O)CN(c3ccc(-c4cc(F)ccc4F)cc3)C2=O)sc1S(N)(=O)=O (single isomer, unassigned) [Compound 344] and Cc1nc(N2C[C@@H](C(C)(C)F)CN(c3ccc(-c4cc(F)ccc4F)cc3)C2=O)sc1S(N)(=O)=O (single isomer, unassigned) [Compound 351] cannot be ordered by EC50: < 100 nM for the first, < 100 nM for the second.

COc1c(F)cc(F)cc1-c1ccc(N2C[C@@H](C(C)(C)O)CN(c3nc(C)c(S(N)(=O)=O)s3)C2=O)cc1 (single isomer, unassigned) [Compound 346] and COc1c(F)cc(F)cc1-c1ccc(N2C[C@H](C(C)(C)O)CN(c3nc(C)c(S(N)(=O)=O)s3)C2=O)cc1 (single isomer, unassigned) [Compound 347] fall in the same range of EC50: 100 to 1000 nM for the first, 100 to 1000 nM for the second.

Cc1nc(N2C[C@H](C(F)F)CN(c3ccc(-c4cc(F)ccc4F)cc3)C2=O)sc1S(N)(=O)=O (single isomer, unassigned) [Compound 350] and Cc1nc(N2C[C@@H](C(F)F)CN(c3ccc(-c4cc(F)ccc4F)cc3)C2=O)sc1S(N)(=O)=O (single isomer, unassigned) [Compound 370] cannot be ordered by EC50: < 100 nM for the first, < 100 nM for the second.

Cc1nc(N2C[C@H](C(C)(C)F)CN(c3ccc(-c4cc(F)ccc4F)cc3)C2=O)sc1S(N)(=O)=O (single isomer, unassigned) [Compound 352] and Cc1nc(N2C[C@@H](C(F)(F)F)CN(c3ccc(-c4cc(F)ccc4F)cc3)C2=O)sc1S(N)(=O)=O (single isomer, unassigned) [Compound 371] cannot be ordered by EC50: < 100 nM for the first, < 100 nM for the second.

Cc1nc(N2C[C@H](O)CN(c3ccc(-c4cc(F)ccc4F)cc3)C2=O)sc1S(N)(=O)=O (single isomer, unassigned) [Compound 354] and Cc1nc(N2C[C@@H](O)CN(c3ccc(-c4cc(F)ccc4F)cc3)C2=O)sc1S(N)(=O)=O (single isomer, unassigned) [Compound 355] cannot be ordered by EC50: < 100 nM for the first, < 100 nM for the second.

CO[C@@H]1CN(c2ccc(-c3cc(F)ccc3F)cc2)C(=O)N(c2nc(C)c(S(N)(=O)=O)s2)C1 (single isomer, unassigned) [Compound 358] and CO[C@H]1CN(c2ccc(-c3cc(F)ccc3F)cc2)C(=O)N(c2nc(C)c(S(N)(=O)=O)s2)C1 (single isomer, unassigned) [Compound 359] fall in the same range of EC50: 1000 to 5000 nM for the first, 1000 to 5000 nM for the second.

Cc1nc(N2C[C@@H](C#N)CN(c3ccc(-c4cc(F)ccc4F)cc3)C2=O)sc1S(N)(=O)=O (single isomer, unassigned) [Compound 362] and Cc1nc(N2C[C@H](F)CN(c3ccc(-c4cc(F)ccc4F)cc3)C2=O)sc1S(N)(=O)=O (single isomer, unassigned) [Compound 364] cannot be ordered by EC50: < 100 nM for the first, < 100 nM for the second.

First: Cc1nc(N2C[C@@H](F)CN(c3ccc(-c4cc(F)ccc4F)cc3)C2=O)sc1S(N)(=O)=O (single isomer, unassigned) [Compound 365]
Second: Cc1nc(N2C[C@H](C(N)=O)CN(c3ccc(-c4cc(F)ccc4F)cc3)C2=O)sc1S(N)(=O)=O (single isomer, unassigned) [Compound 382]
The EC50 of the first is lower: < 100 nM for the first, 100 to 1000 nM for the second.

COc1c(F)cc(F)cc1-c1ccc(N2C[C@@H](C(F)(F)F)CN(c3nc(C)c(S(N)(=O)=O)s3)C2=O)cc1 (single isomer, unassigned) [Compound 373] and COc1c(F)cc(F)cc1-c1ccc(N2C[C@H](C(F)(F)F)CN(c3nc(C)c(S(N)(=O)=O)s3)C2=O)cc1 (single isomer, unassigned) [Compound 374] cannot be ordered by EC50: < 100 nM for the first, < 100 nM for the second.

First: Cc1nc(N2C[C@@H](C(N)=O)CN(c3ccc(-c4cc(F)ccc4F)cc3)C2=O)sc1S(N)(=O)=O (single isomer, unassigned) [Compound 383]
Second: Cc1nc(N2C[C@H](F)CN(c3ccc(-c4cc(F)ccc4F)cc3)C2=O)sc1S(=O)(=O)NCCO (single isomer, unassigned) [Compound 414]
The EC50 of the first is higher: 100 to 1000 nM for the first, < 100 nM for the second.

Cc1nc(N2C[C@@H](F)CN(c3ccc(-c4cc(F)ccc4F)cc3)C2=O)sc1S(=O)(=O)NCCO (single isomer, unassigned) [Compound 415] and CCC[S@@](=N)(=O)c1sc(N2CCCN(c3ccc(-c4cc(F)cc(F)c4F)cc3)C2=O)nc1C (single isomer, unassigned) [Compound 424] cannot be ordered by EC50: < 100 nM for the first, < 100 nM for the second.

Same assay, conditions: Vero cells, 160 TCID50 HSV-2 G strain, 5 days, cell viability

For Cc1nc(N2C[C@@H](C#N)CN(c3ccc(-c4cc(F)ccc4F)cc3)C2=O)sc1S(N)(=O)=O (single isomer, unassigned) [Compound 377], the EC50 was < 100 nM.
